According to patent US20060182771A1, “Formulations for ocular treatment” (priority 2005, published 2006):

Experiment: Concentration of rapamycin in the vitreous of rabbit eyes after intravitreal injection of the self-emulsifying formulation (LCMS)
Type: in vivo, New Zealand white rabbits
Conditions: full vitreous homogenized, average of four eyes
Description: 50 μl of the formulation described in Example 1 were injected into the vitreous of the eye of New Zealand white rabbits. The full vitreous, which included the area into which the self-emulsifying formulation was injected, was homogenized and analyzed at 1, 5, 24, 72 and 168 hours for the concentration of rapamycin remaining therein. The average concentration of the vitreous was calculated by dividing the mass of rapamycin measured by the volume of vitreous analyzed. The analysis was by liquid chromatography mass spectroscopy (LCMS). Each timepoint represents the average of two eyes of each of two rabbits (four eyes at each timepoint).
The average concentration of rapamycin at 1, 5, 24, 72 and 168 hours was about 347, about 401, about 273, about 18, and about 1 μg/μl, respectively.

average concentration of rapamycin in the vitreous (1 hour after injection of 50 μl of the Example 1 formulation into the vitreous): about 347 μg/μl
average concentration of rapamycin in the vitreous (5 hours after injection of 50 μl of the Example 1 formulation into the vitreous): about 401 μg/μl
average concentration of rapamycin in the vitreous (24 hours after injection of 50 μl of the Example 1 formulation into the vitreous): about 273 μg/μl
average concentration of rapamycin in the vitreous (72 hours after injection of 50 μl of the Example 1 formulation into the vitreous): about 18 μg/μl
concentration at 168 h (New Zealand white, rabbit, vitreous (full vitreous homogenate), other: intravitreal injection, 168 hours after injection of 50 μl of the Example 1 formulation into the vitreous): ~1000 µg/mL
SMILES: CO[C@H]1C[C@@H]2CC[C@@H](C)[C@@](O)(O2)C(=O)C(=O)N2CCCC[C@H]2C(=O)O[C@H]([C@H](C)C[C@@H]2CC[C@@H](O)[C@H](OC)C2)CC(=O)[C@H](C)/C=C(\C)[C@@H](O)[C@@H](OC)C(=O)[C@H](C)C[C@H](C)/C=C/C=C/C=C/1C [rapamycin]
